Test results reported in patent US20260027116A1, “Methods of Treating Chronic Graft-Versus-Host Disease Following Allogeneic Hematopoietic Stem Cell Transplantation” (Kadmon Corporation, LLC, priority 2022, published 2026).

System: patients with cGVHD
Conditions: Cohort 3 400 mg QD

## CC(C)NC(=O)COc1cccc(-c2nc(Nc3ccc4[nH]ncc4c3)c3ccccc3n2)c1 [Belumosudil, 2-{3-[4-(1H-indazol-5-ylamino)-2-quinazolinyl]phenoxy}-N-(propan-2-yl) acetamide]
  Pleural effusion: Affected/At Risk (%): 1/21 (4.76%)
  Pneumonia respiratory syncytial viral: # Events: 0
  Pneumonia respiratory syncytial viral: Affected/At Risk (%): 0/21 (0%)
  Pneumonia: # Events: 0
  Pneumonia: Affected/At Risk (%): 0/21 (0%)
  Pollakiuria: # Events: 0
  Pollakiuria: Affected/At Risk (%): 0/21 (0%)
  Presyncope: # Events: 0
  Presyncope: Affected/At Risk (%): 0/21 (0%)
  Productive cough: # Events: 2
  Productive cough: Affected/At Risk (%): 1/21 (4.76%)
  Proteinuria: # Events: 0
  Proteinuria: Affected/At Risk (%): 0/21 (0%)
  Pruritus: # Events: 0
  Pruritus: Affected/At Risk (%): 0/21 (0%)
  Pseudomonas infection: # Events: 0
  Pseudomonas infection: Affected/At Risk (%): 0/21 (0%)
  Pulmonary mass: # Events: 1
  Pulmonary mass: Affected/At Risk (%): 1/21 (4.76%)
  Pyrexia: # Events: 3
  Pyrexia: Affected/At Risk (%): 3/21 (14.29%)
  Rash erythematous: # Events: 0
  Rash erythematous: Affected/At Risk (%): 0/21 (0%)
  Rash maculo-papular: # Events: 0
  Rash maculo-papular: Affected/At Risk (%): 0/21 (0%)
  Rash pustular: # Events: 0
  Rash pustular: Affected/At Risk (%): 0/21 (0%)
  Rash: # Events: 1
  Rash: Affected/At Risk (%): 1/21 (4.76%)
  Red blood cells urine positive: # Events: 0
  Red blood cells urine positive: Affected/At Risk (%): 0/21 (0%)
  Renal failure: # Events: 0
  Renal failure: Affected/At Risk (%): 0/21 (0%)
  Respiratory syncytial virus infection: # Events: 3
  Respiratory syncytial virus infection: Affected/At Risk (%): 2/21 (9.52%)
  Respiratory tract infection fungal: # Events: 0
  Respiratory tract infection fungal: Affected/At Risk (%): 0/21 (0%)
  Respiratory tract infection: # Events: 0
  Respiratory tract infection: Affected/At Risk (%): 0/21 (0%)
  Restless legs syndrome: # Events: 0
  Restless legs syndrome: Affected/At Risk (%): 0/21 (0%)
  Rosacea: # Events: 0
  Rosacea: Affected/At Risk (%): 0/21 (0%)
  SAE, No. (%): 12 (57)
  Sinus pain: # Events: 0
  Sinus pain: Affected/At Risk (%): 0/21 (0%)
  Sinusitis: # Events: 1
  Sinusitis: Affected/At Risk (%): 1/21 (4.76%)
  Skin abrasion: # Events: 2
  Skin abrasion: Affected/At Risk (%): 2/21 (9.52%)
  Skin lesion: # Events: 0
  Skin lesion: Affected/At Risk (%): 0/21 (0%)
  Skin papilloma: # Events: 0
  Skin papilloma: Affected/At Risk (%): 0/21 (0%)
  Spinal compression fracture: # Events: 0
  Spinal compression fracture: Affected/At Risk (%): 0/21 (0%)
  Squamous cell carcinoma of skin: # Events: 0
  Squamous cell carcinoma of skin: Affected/At Risk (%): 0/21 (0%)
  Stomatitis: # Events: 1
  Stomatitis: Affected/At Risk (%): 1/21 (4.76%)
  Superior vena cava syndrome: # Events: 0
  Superior vena cava syndrome: Affected/At Risk (%): 1/21 (4.76%)
  TEAE, participants (%): 20 (95%) participants
  TESAE, participants (%): 13 (62%) participants
  Tachycardia: # Events: 2
  Tachycardia: Affected/At Risk (%): 2/21 (9.52%)
  Tendonitis: # Events: 0
  Tendonitis: Affected/At Risk (%): 0/21 (0%)
  Testicular pain: # Events: 0
  Testicular pain: Affected/At Risk (%): 0/21 (0%)
  Testicular swelling: # Events: 0
  Testicular swelling: Affected/At Risk (%): 0/21 (0%)
  Thoracic spinal stenosis: # Events: 0
  Thoracic spinal stenosis: Affected/At Risk (%): 0/21 (0%)
  Thrombocytopenia: # Events: 1
  Thrombocytopenia: Affected/At Risk (%): 1/21 (4.76%)
  Thrombocytosis: # Events: 0
  Thrombocytosis: Affected/At Risk (%): 0/21 (0%)
  Tinea pedis: # Events: 0
  Tinea pedis: Affected/At Risk (%): 0/21 (0%)
  Tooth fracture: # Events: 0
  Tooth fracture: Affected/At Risk (%): 0/21 (0%)
  Total other adverse events: Affected/At Risk (%): 19/21 (90.48%)
  Transfusion reaction: # Events: 0
  Transfusion reaction: Affected/At Risk (%): 0/21 (0%)
